Laboratory results: US20220257741A1, “COMBINATION THERAPY FOR CANCER” (IO Biotech ApS, priority 2016, published 2022)
Where “and” joins values, the source holds several entries; their conditions need not be identical. Equal entries are not always repeated. Entries after “also recorded” stand apart in the source; their conditions may differ.

Tests used:
TC-1 tumour = TC-1 tumour model, peptide vaccination (Examples 7 and 8); assay type: in vivo, C57BL/6 mice
Experimental: C57BL/6 mice harbouring TC-1 tumour were treated with TC-1 specific E7-peptide ([…]; SEQ ID NO: 35) or IDO-Pep1 ([…]; SEQ ID NO: 33) and the efficacy of the peptide vaccines was assessed by tumour burden and survival. The mouse IDO peptide sequence (IDO-Pep1) was selected to provide a murine analog for the human IDO peptides tested in the earlier Examples, because the sequence of murine IDO1 differs to that of human IDO1.
4-6 week-old C57BL/6 mice were injected with 70,000 cell/ mouse of TC-1 cells. Treatment in respective groups was started when tumour reached an average size of approximately 0.075 cm3 (approx. 10 days after tumour inoculation). Peptides used for vaccination included TC1-specific E7-peptide ([…]; SEQ ID NO: 35) and IDO-Pep1 ([…]; SEQ ID NO: 33). The mouse IDO peptide was designed based on MHC class I and II binding algorithm. […] Mice were vaccinated two-three times with one-week interval, and the efficacy of the peptide vaccines was assessed by measuring tumour volume and/or overall survival.
C57BL/6 mice harbouring TC-1 tumour were treated with TC-1 specific E7-peptide ([…]; SEQ ID NO: 35), or IDO-Pep1 ([…]; SEQ ID NO: 33), or a combination of both E7 and IDO-Pep1. The efficacy of the vaccines was assessed by overall survival. […]

metastatic melanoma = settings: phase III; cited from earlier work
[1] = Phase I clinical trial, adverse events graded by CTCAE v. 4.0; assay type: in vivo, human
Description: Patients were enrolled in a First-in-Human phase I clinical trial at the Department of Oncology at Herlev Hospital, University of Copenhagen (Herlev, Denmark) from March 2014 to August 2014. The study was originally designed as a two-armed phase I study, combining IDO1-derived peptide vaccination with standard-of-care treatment with either Ipilimumab or Vemurafenib. Only data from patients treated with Ipilimumab in combination with vaccine is reported. […]
Primary end-point was toxicity. In addition, immune-response against the vaccine peptide and the clinical benefit of treatment were assessed. […]
Safety of the study treatment was assessed in terms of occurrence of adverse events, graded according to Common Terminology Criteria for Adverse Events (CTCAE) version 4.0. Anti-tumour activity was evaluated with positron emission tomography-computed tomography (PET-CT) scans obtained at baseline (up to 28 days before treatment initiation) after 12 weeks and every 8-12 weeks thereafter until progression. CT scans were evaluated according to Response Evaluation Criteria In Solid Tumors (RECIST) version 1.1. […]

[2] = tested on: Tregs and MDSC in peripheral blood; experiment: Flow cytometry of regulatory cells in peripheral blood of patients; assay type: in vivo, human; settings: patients treated with Ipilimumab without the vaccine (data not shown)
Experimental: PBMC samples was thawed in 37° C. RPMI 1640 medium (Lonza) supplemented with 2.5 ml DNAse containing Pulmozyme (Roche) and 0.26 mmol MgCl (Herlev Hospital Pharmacy) per 100 ml buffer. All stainings were done in phosphate buffered saline (PBS)(Lonza) containing 0.5% bovine serum albumin (Sigma-Aldrich). The following antibodies were used: FoxP3-PE, HLA-DR-HV500, CD3-PE-Cy7, CD19-PE-Cy7, CD56-PE-Cy7, CD4-HV500, CD11b-APC, CD3-APC (purchased from BD Bioscience), CD33-FITC, CD124-PE (purchased from BD Pharmigen), HELIOS-PerCP-Cy5.5, CD14-BV421, CD25-BV421 (all purchased from Biolegend), CD127-FITC, CD39-PE-Cy7 (purchased from eBioscience). Additionally, all samples were stained with the LIVE/DEADR Fixable Near-IR Dead Cell Stain Kit (life technologies). For intracellular staining of transcription factors, we used the Foxp3/Transcription Factor Staining Buffer Set (eBioscience) according to the manufacturors instructions. Cells were acquired on a FACSCanto II using FACSDiva Software version 6.1.3 (BD Biosciences). Analysis of flow data was done using FlowJo software version 10 OSX (TreeStar, Inc., Ashland, Oreg.). Data-analysis was done after filtering of dead cells and doublets/triplets.
Tregs were defined as CD3+CD4+CD25highCD127-FOXP3+.
MDSC were defined as PBMC negative for lineage-markers CD3, CD19 and CD56 and additionally HLADR-/lowCD14+CD11b+CD33+CD124−.

PBMC = experiment: Direct IFN-γ ELISpot of patient PBMC stimulated with IO102 peptide; assay type: cell-based, human; settings: patients treated with Ipilimumab without IDO-vaccine, before and after three series
THP-1 cells = experiment: 51Cr-release assay, PBMC killing of THP-1 (Example 4); assay type: cell-based; settings: peptide 0.1 μM, day 17, range of E/T ratios
Experimental: Buffycoats were thawed (day 0), washed twice, resuspended in medium, counted and plated into wells as set out in Table Z4. THP-1 cells were irradiated with 30 GY and washed twice in medium. THP-1 cells were counted and added to PBMC containing wells as set out in Table Z4 (total volume 2 ml). Plates were placed in an incubator at 37 degrees. On days 7 and 14, 1 ml supernatant/well was removed. Cells were harvested and analyzed for cytotoxic activity on day 17. A standard ^51Cr-release assay was used to measure the cytotoxic potential of the peptide treated PBMCs. ^51Cr labeled THP-1 cells were used as target cells and peptide treated PBMCs as effector cells. Triton-X treated wells was used as maximum measurable lysis and medium alone as minimum lysis.
% Specific lysis=((cpmsample−cpmminimum)/(cpmmaximum−cpmminimum))×100%

RAHYNIVTF (Fragment of the E7 oncoprotein of HPV) [E7 peptide]
Protection (overall survival) (TC-1 tumour; 100 μg/mouse of each peptide s.c. with PADRE and QuilA): has therapeutic efficacy

Ipilimumab
Clinical benefit rate (metastatic melanoma): ~30%
Overall response rate (metastatic melanoma): 10.9%
Toxicity, Ipilimumab ([1]; adverse reactions by CTCAE v. 4.0, one table line per patient (01i-13i), attributed by treating physician, Ipilimumab 3 mg/kg plus IO102 vaccine): Grade II choroiditis and None (3×) and Pruritus grade I, Grade I and diarrhoea, and Grade II rash, grade II and diarrhoea (2×) and Grade II rash and Grade II rosacea, grade III and Grade II pruritus and Grade I nausea
Adverse reactions most likely related to Ipilimumab treatment ([1]; individual patients, CTCAE grade): Two patients experienced grade II diarrhoea; also recorded: grade III diarrhoea; also recorded: two patients experienced grade II maculopapular rash; also recorded: flare in their pre-existing rosacea; also recorded: grade II choroiditis
Level of MDSC in peripheral blood [2]: no change in MDSC
Level of Tregs in peripheral blood [2]: Reduced levels of Tregs
Induction of IDO-specific cells (IO102 reactivity, ELISpot) (PBMC): no induction of IDO-specific cells

MTYENMDIL (listed as Mus musculus) [IDO-Pep1]
Anti-tumour effect (tumour volume and survival) (TC-1 tumour; 100 μg/mouse s.c. with PADRE and QuilA, therapeutic): anti-tumour protective effect; also recorded: greater protection than when vaccinated with tumour-specific peptide antigen, E7 peptide

CILDSKLEVEALAQLLTFALK [IDO scrambled]
Allogenic killing (lysis) of THP-1 cells by PBMCs (THP-1 cells): induced less lysis of THP-1 cells
